Like-named read-outs stand apart in the source and are kept apart here. Marks after values point to notes of the source that are not given here.
Tests used:
[1] = tested on: mouse NASH model; assay: Mouse NASH model test (HFD + fructose), combination with semaglutide; type: in vivo, mice
Description: Test Example 6 Mouse NASH Model Test
After the animals arrived and acclimatized for 1 week, they were randomly divided into 2 groups. 48 mice were fed a high-fat diet (HFD) and had free access to 15% fructose water (w/w). After the animals were fed for 20 weeks, they were fasted for 6 h, and fasting blood glucose (FBG) was monitored by a blood glucose meter. Orbital blood was taken from all animals, and serum was collected by centrifugation to detect serum ALT levels. Animals were randomly divided into 6 groups according to their body weight, FBG and ALT levels. After that, the high fat feed (HFD) was replaced with the modified high fat feed (mHFD), and the mice had free access to 15% fructose water (v/w). The 8 mice in the other group were fed normal diet and water.
The first end point of the experiment: After 8 weeks of administration, the end point body weight was recorded and the animals were fasted for 6 h, and fasting blood glucose was measured with a blood glucose meter. The mice were then euthanized by CO2 and serum was collected by orbital blood sampling and stored at −80° C. for insulin and biochemical analysis. The animal's liver was taken and the liver weight was recorded. The liver was divided into four parts, one part was quick-frozen in liquid nitrogen for biochemical analysis, one part was placed in tissue fixative for pathological analysis, one part was stored in RNAlater for qPCR detection (backup for later use), and one part was quick-frozen in liquid nitrogen for possible subsequent detection.
The second end point of the experiment: 3 mice were kept in each group for 6 weeks for further observation. The end point body weight was recorded and the mice were fasted for 6 h. Fasting blood glucose was tested with a blood glucose meter. The mice were then euthanized by CO2 and serum was collected by orbital blood sampling and stored at −80° C. for insulin and biochemical analysis. The animal's liver was taken and the liver weight was recorded. The liver was divided into four parts, one part was quick-frozen in liquid nitrogen for biochemical analysis, one part was placed in tissue fixative for pathological analysis, one part was stored in RNAlater for qPCR detection (backup for later use), and one part was quick-frozen in liquid nitrogen for subsequent detection.

[2] = 14-day toxicity experiment on rats: toxicokinetics; type: in vivo, SD rats; details: for Cmax / AUC(0-t): SD, rat, plasma, po; for AUC(0-t): read-out: AUC(0-24)
Description: (§1) Test Example 7 14-Day Toxicity Experiment on Rats
(§2) SD rats were orally gavaged with compound 062 and the control compound once a day for a total of 14 times. The toxic reactions caused by compound 062 and the control compound were observed and their toxicokinetics were studied.
(§3) Oral gavage. The drug was stirred for at least 30 min prior to administration and continuously stirred throughout the administration. The dosing frequency was once a day for 14 consecutive days, and the dosing amount was 10 mL/kg (the dosing amount was calculated based on the most recent weight).
Different time points before and after administration on D1 and D14.
Group 2 to Group 7: Before dosing and 0.5 h, 1 h, 2 h, 4 h, 8 h and 24 h after dosing (before dosing on D2 and/or D15).
Whole blood was collected into a blood collection tube containing EDTA-K2, the tube was immediately and gently inverted upside down several times to mix the system thoroughly, and placed on crushed ice/ice pack. Blood was centrifuged (2000 g, 10 min) at 4° C. (set temperature, allowable temperature range: 2 to 8° C.) within 1 h after blood collection. The collected plasma was divided into two portions into separate labeled EP tubes (one for testing and one for standby testing), and stored in an ultra-low temperature refrigerator (−70° C. to −90° C.) within 2 h after collection. The samples were stored in dry ice during transportation and transfer.
The drug concentration in plasma was analyzed by using LC-MS/MS, verified blood drug concentration data was provided, and the main toxicokinetic parameters (AUC0-t, Cmax and Tmax) were calculated and compared.

[3] = tested on: SD rats; assay: 14-day toxicity experiment on rats: safety observations; type: in vivo
Description: as §1, §2
An appropriate amount of the test compound was weighed (weighed amount=theoretical required amount/content), and fully ground and dispersed in a mortar (agate or ceramic). Then, an appropriate amount of [5% Solutol HS15 in 95% (0.2% CMC-Na)] was added and the mixture was ground until there were no obvious large particles. Then the mortar was cleaned with [5% Solutol HS15 in 95% (0.2% CMC-Na)] in small amounts several times until there was no drug powder residue observed with the naked eye. The mixture was transferred to a suitable container, well stirred and mixed, and the remaining [5% Solutol HS15 in 95% (0.2% CMC-Na)] was further added to the required volume (streaking method). The system was stirred and mixed for at least 20 min, thereby giving the test sample formulation.
as §3
Dosing period: All surviving animals in the main test group were observed twice a day, once before and after dosing respectively, and observed in detail at least once a week.
Observation contents: The main observation contents include (but not limited to) survival status, injection site, skin, hair, eyes, ears, nose, mouth, chest, abdomen, urogenital area, limbs, as well as breathing, movement, urination, defecation, mental or behavioral changes, etc.
Dosing period: All surviving animals were weighed at least once a week. The body weight of animals in the toxicokinetics (TK) group was only used to calculate the dosage. The body weight data were not statistically analyzed and were only presented as individual data in the summary report.
Dosing period: The food intake of the surviving animals in the main test group was weighed at least once a week, and the average food intake was expressed in g/animal/day.
• End of dosing period: once; • Blood sampling route: abdominal aorta; • Animals: Plan to dissect surviving animals; • Blood was collected into tubes containing anticoagulant (EDTA-K2), and hematological indices were detected using a Sysmex XN-1000V fully automatic blood analyzer; blood was collected into anticoagulant tubes containing sodium citrate, and coagulation indices were detected using a Sysmex CS-5100 coagulometer. The specific detection indices are as follows:
• End of dosing period: once; • Blood sampling route: abdominal aorta; • Animals: Plan to dissect surviving animals; • The animals were fasted overnight, and whole blood was collected into a test tube containing a coagulant and a separation gel. Serum was obtained by centrifugation, and serum biochemical indices were detected using a Hitachi-7180 biochemical analyzer. The specific detection indices are as follows:
• Dissection time: end of dosing period (D15); • Anesthesia method: The specifications of the anesthetic mixture are ketamine of 37.5 mg/mL and xylazine of 2.5 mg/mL. The euthanasia dose is 2-4 mL/kg of the mixture (the anesthetic dose of the animal planned for dissection is calculated based on the body weight after fasting overnight, the concentration will be recorded in the original record and presented in the summary report, and the dose can be adjusted according to the anesthetic effect) by intraperitoneal injection. […]

[4] = 30 mg/kg, 30 mpk oral, Day 1, plasma
[5] = 30 mg/kg, 30 mpk oral, Day 14, plasma
[6] = 60 mg/kg, 60 mpk oral, Day 1, plasma
[7] = 60 mg/kg, 60 mpk oral, Day 14, plasma
[8] = 100 mg/kg, 100 mpk oral, Day 1, plasma
[9] = 100 mg/kg, 100 mpk oral, Day 14, plasma

For `CC#Cc1ccc2c(-c3ccc(Cl)cc3O)nnc(NC[C@H](O)CO)c2c1` [Compound 062, (S)-3-((4-(4-chloro-2-hydroxyphenyl)-7-(prop-1-yn-1-yl)phthalazin-1-yl)amino) propan-1,2-diol], the “rebound of mouse body weight after drug withdrawal” value ([1]; combination with 0.025 mpk semaglutide, FIG. 5) was “significantly inhibited the rebound of mouse body weight after drug withdrawal”, the food intake ([1]; combination with 0.025 mpk semaglutide, FIG. 6) was “without affecting food intake” and the “levels of ALT, AST, LDL and HDL after drug withdrawal” value ([1]; serum, combination with 0.025 mpk semaglutide, FIG. 7) was “significantly inhibited the levels of ALT, AST, LDL and HDL after drug withdrawal”. The “exposure in the high-dose group relative to the control compound” value ([2]; 100 mg/kg high-dose group) was 4.8 times, the Cmax [2, 4] was 19900 ng/mL and the AUC(0-t) [2, 4] was 279 µg·h/mL. It also gave a Cmax [2, 5] of 31700 ng/mL, an AUC(0-t) [2, 5] of 384 µg·h/mL and a Cmax [2, 6] of 41100 ng/mL. It also gave an AUC(0-t) [2, 6] of 622 µg·h/mL, a Cmax [2, 7] of 68600 ng/mL and an AUC(0-t) [2, 7] of 1120 µg·h/mL. For the same compound, the Cmax [2, 8] was 68200 ng/mL, the AUC(0-t) [2, 8] was 1120 µg·h/mL and the Cmax [2, 9] was 127000 ng/mL. The AUC(0-t) [2, 9] was 2120 µg·h/mL, the “safety (conclusion in words)” value ([3]; 14-day rat study) was “good safety” and the Death/moribundity ([3]; 30, 60, 100 mg/kg/day oral, 14 days) was “None”. The “safety compared with the control compound” value ([3]; exposure in high-dose group 4.8 times that of control compound) was “much better than that of the control compound”.
For `CC(C)(O)CNc1nnc(-c2ccc(Cl)cc2O)c2ccncc12` [Control compound], the “rebound of body weight after drug withdrawal” value ([1]; control compound combined with semaglutide) was “neither the control compound combined with semaglutide nor the groups of low/high dose semaglutide alone inhibited the rebound of body weight”, the Cmax [2, 4] was 17500 ng/mL and the AUC(0-t) [2, 4] was 248 µg·h/mL. For the same compound, the Cmax [2, 5] was 13200 ng/mL, the AUC(0-t) [2, 5] was 202 µg·h/mL and the Cmax [2, 6] was 21400 ng/mL. It also gave an AUC(0-t) [2, 6] of 360 µg·h/mL, a Cmax [2, 7] of 22400 ng/mL and an AUC(0-t) [2, 7] of 324 µg·h/mL. The Cmax [2, 8] was 24000 ng/mL, the AUC(0-t) [2, 8] was 405 µg·h/mL and the Cmax [2, 9] was 26700 ng/mL. The AUC(0-t) [2, 9] was 439 µg·h/mL, the “animals with swelling of the left and right hind limbs and ears, females” value ([3]; 30 mg/kg) was 2/5 and the “animals with swelling of the left and right hind limbs and ears, males” value ([3]; 30 mg/kg) was 4/5. For the same compound, the “Gross anatomy, animals with unplanned autopsy (dead animals)” value ([3]; 100 mg/kg) was “showed discoloration of the lungs and/or liver”, the “weight loss before death vs before dosing, animal 4006#” value ([3]; 100 mg/kg, male, TK group, found dead D 6) was “weight loss (vs before dosing: ↓28.4%)” and the “body weight decrease before death vs before dosing, animal 4101#” value ([3]; 100 mg/kg, male, found dead D 4) was “↓6.25%); before death, animal 4006# showed”. For the same compound, the “body weight reduction vs. control group” value ([3]; D 7, high (100 mg/kg)) was 22.5%, the “body weight reduction vs. control group” value ([3]; D 7, low (30 mg/kg)) was 7.7% and the “body weight reduction vs. control group” value ([3]; D 7, medium (60 mg/kg)) was 16.7%. For the same compound, the “body weight reduction vs. control group” value ([3]; D 14, high (100 mg/kg)) was 23.3%, the “body weight reduction vs. control group” value ([3]; D 14, low (30 mg/kg)) was 8.5% and the “body weight reduction vs. control group” value ([3]; D 14, medium (60 mg/kg)) was 14.6%. For the same compound, the “#NEU increase” value ([3]; females, high (100 mg/kg)) was 687.1%, the MONO % increase ([3]; females, high (100 mg/kg)) was 290.3% and the “#MONO increase” value ([3]; females, low (30 mg/kg)) was 187.7%. For the same compound, the MONO % increase ([3]; females, low (30 mg/kg)) was 63.6%, the “#MONO increase” value ([3]; females, medium (60 mg/kg)) was 237.0% and the “#NEU increase” value ([3]; females, medium (60 mg/kg)) was 251.8%. The MONO % increase ([3]; females, medium (60 mg/kg)) was 100.6%, the “ALB reduction vs. control group” value ([3]; females, ≥100 mg/kg) was “females: at dose ≥100 mg/kg, ALB (↓28.5%)” and the “GLO increase vs. control group” value ([3]; females, ≥100 mg/kg) was “GLO (: ↑ 61.3%) was significantly increased”. The “#MONO increase vs. control group” value ([3]; males, high (100 mg/kg)) was 313.0%, the “#MONO increase vs. control group” value ([3]; males, low (30 mg/kg)) was “#MONO increased (low: ↑ 154.4%,” and the “#MONO increase vs. control group” value ([3]; males, medium (60 mg/kg)) was 215.8%. The “#EOS increase vs. control group” value ([3]; males, ≥100 mg/kg) was 816.7%, the “MONO % increase vs. control group” value ([3]; males, ≥100 mg/kg) was 160.3% and the “body weight gain vs. control group” value ([3]; ≥30 mg/kg, males and females) was “low body weight gain”.

Source: patent US20260216182A1, “PYRIDAZINE NLRP3 INHIBITOR COMPOUND, PHARMACEUTICAL COMPOSITION, AND PREPARATION METHOD THEREFOR AND USE THEREOF” (CHANGCHUN GENESCIENCE PHARMACEUTICAL CO., LTD., priority 2022, published 2026)
